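Cultured in 96-well plates, cells were exposed to test compound for 48 hours across five concentrations. TGI denotes the concentration required for complete inhibition of growth.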
How the values were obtained:
Assay in all cases: DTP human tumour cell line panel, 48 h
[1] = tested on: SF-539 CNS
[2] = tested on: COLO 205 colon
[3] = tested on: CAKI-1 renal
[4] = tested on: U251 CNS
[5] = tested on: LOX IMVI melanoma
[6] = tested on: SF-268 CNS
[7] = tested on: IGROV1 ovarian
[8] = tested on: MCF7 breast
[9] = tested on: MALME-3M melanoma
[10] = tested on: SN12C renal
[11] = tested on: DU-145 prostate
[12] = tested on: NCI-H226 lung
[13] = tested on: HS 578T breast
[14] = tested on: M14 melanoma
[15] = tested on: RXF 393 renal
[16] = tested on: SF-295 CNS
[17] = tested on: KM12 colon
[18] = tested on: OVCAR-3 ovarian
[19] = tested on: MDA-N
[20] = tested on: CCRF-CEM leukemia
[21] = tested on: UO-31 renal
[22] = tested on: EKVX NSCLC
[23] = tested on: ACHN renal
[24] = tested on: NCI/ADR-RES ovarian
[25] = tested on: NCI-H23 lung
[26] = tested on: OVCAR-5 ovarian
[27] = tested on: OVCAR-8 ovarian
[28] = tested on: SK-MEL-5 melanoma
[29] = tested on: SNB-19 CNS
[30] = tested on: MDA-MB-231 breast
[31] = tested on: A498 renal
[32] = tested on: HCT-116 colon
[33] = tested on: SNB-75 CNS
[34] = tested on: HL-60(TB) leukemia
[35] = tested on: NCI-H522 lung
[36] = tested on: A549 NSCLC
[37] = tested on: TK-10 renal
[38] = tested on: SK-MEL-2 melanoma
[39] = tested on: HOP-62 NSCLC
[40] = tested on: OVCAR-4 ovarian
[41] = tested on: SK-OV-3 ovarian
[42] = tested on: HCC-2998 colon
[43] = tested on: HCT-15 colon
[44] = tested on: MOLT-4 leukemia
[45] = tested on: UACC-62 melanoma
[46] = tested on: SW-620 colon
[47] = tested on: SR leukemia
[48] = tested on: PC-3 prostate
[49] = tested on: SK-MEL-28 melanoma
[50] = tested on: UACC-257 melanoma
[51] = tested on: NCI-H460 lung
[52] = tested on: MDA-MB-435
[53] = tested on: HT29 colon
[54] = tested on: 786-0 renal
[55] = tested on: BT-549 breast
[56] = tested on: HOP-92 NSCLC
[57] = tested on: K-562 leukemia
[58] = tested on: RPMI-8226 leukemia

SMILES: Cc1cc(O)c(C=NC(=S)c2ccncc2)c(=O)o1
- TGI [1]: > 100 µM
- TGI [2]: > 100 µM
- TGI [3]: > 100 µM
- TGI [4]: > 100 µM
- TGI [5]: > 100 µM
- TGI [6]: > 100 µM
- TGI [7]: > 100 µM
- TGI [8]: > 100 µM
- TGI [9]: > 100 µM
- TGI [10]: > 100 µM
- TGI [11]: > 100 µM
- TGI [12]: > 100 µM
- TGI [13]: > 100 µM
- TGI [14]: > 100 µM
- TGI [15]: > 100 µM
- TGI [16]: > 100 µM
- TGI [17]: > 100 µM
- TGI [18]: > 100 µM
- TGI [19]: > 100 µM
- TGI [20]: > 100 µM
- TGI [21]: > 100 µM
- TGI [22]: > 100 µM
- TGI [23]: > 100 µM
- TGI [24]: > 100 µM
- TGI [25]: > 100 µM
- TGI [26]: > 100 µM
- TGI [27]: > 100 µM
- TGI [28]: > 100 µM
- TGI [29]: > 100 µM
- TGI [30]: > 100 µM
- TGI [31]: > 100 µM
- TGI [32]: > 100 µM
- TGI [33]: > 100 µM
- TGI [34]: > 100 µM
- TGI [35]: > 100 µM
- TGI [36]: > 100 µM
- TGI [37]: > 100 µM
- TGI [38]: > 100 µM
- TGI [39]: > 100 µM
- TGI [40]: > 100 µM
- TGI [41]: > 100 µM
- TGI [42]: > 100 µM
- TGI [43]: > 100 µM
- TGI [44]: > 100 µM
- TGI [45]: > 100 µM
- TGI [46]: > 100 µM
- TGI [47]: > 100 µM
- TGI [48]: > 100 µM
- TGI [49]: > 100 µM
- TGI [50]: > 100 µM
- TGI [51]: > 100 µM
- TGI [52]: > 100 µM
- TGI [53]: > 100 µM
- TGI [54]: > 100 µM
- TGI [55]: > 100 µM
- TGI [56]: > 100 µM

SMILES: C=C1CC[C@]2(C)[C@H](CC[C@@]34C[C@@H](CC[C@H]32)[C@@H](C(=O)O)C4)C1(C)C
- TGI [1]: > 12.5 µM
- TGI [2]: > 12.5 µM
- TGI [57]: > 12.5 µM
- TGI [3]: > 12.5 µM
- TGI [4]: > 12.5 µM
- TGI [5]: > 12.5 µM
- TGI [7]: > 12.5 µM
- TGI [8]: > 12.5 µM
- TGI [9]: > 12.5 µM
- TGI [10]: > 12.5 µM
- TGI [12]: > 12.5 µM
- TGI [13]: > 12.5 µM
- TGI [14]: > 12.5 µM
- TGI [15]: > 12.5 µM
- TGI [16]: > 12.5 µM
- TGI [17]: > 12.5 µM
- TGI [18]: > 12.5 µM
- TGI [19]: > 12.5 µM
- TGI [20]: > 12.5 µM
- TGI [21]: > 12.5 µM
- TGI [22]: > 12.5 µM
- TGI [23]: > 12.5 µM
- TGI [24]: > 12.5 µM
- TGI [25]: > 12.5 µM
- TGI [26]: > 12.5 µM
- TGI [27]: > 12.5 µM
- TGI [28]: > 12.5 µM
- TGI [29]: > 12.5 µM
- TGI [30]: > 12.5 µM
- TGI [31]: 9.3 µM
- TGI [32]: > 12.5 µM
- TGI [34]: > 12.5 µM
- TGI [36]: > 12.5 µM
- TGI [37]: > 12.5 µM
- TGI [38]: > 12.5 µM
- TGI [39]: > 12.5 µM
- TGI [40]: > 12.5 µM
- TGI [41]: > 12.5 µM
- TGI [43]: > 12.5 µM
- TGI [44]: > 12.5 µM
- TGI [45]: > 12.5 µM
- TGI [46]: > 12.5 µM
- TGI [47]: > 12.5 µM
- TGI [48]: > 12.5 µM
- TGI [49]: > 12.5 µM
- TGI [50]: > 12.5 µM
- TGI [51]: > 12.5 µM
- TGI [52]: > 12.5 µM
- TGI [53]: > 12.5 µM
- TGI [54]: > 12.5 µM
- TGI [55]: > 12.5 µM
- TGI [56]: > 12.5 µM

SMILES: CNC(=O)c1ccc(C(=O)NCCCCCN(O)C(=O)CCC(=O)NCCCCCN(O)C(=O)CCC(=O)NCCCCCN(O)C(C)=O)c(O)c1O
- TGI [1]: > 100 µM
- TGI [2]: > 100 µM
- TGI [57]: > 100 µM
- TGI [3]: > 100 µM
- TGI [4]: > 100 µM
- TGI [5]: > 100 µM
- TGI [6]: > 100 µM
- TGI [7]: > 100 µM
- TGI [8]: > 100 µM
- TGI [9]: > 100 µM
- TGI [10]: > 100 µM
- TGI [11]: > 100 µM
- TGI [12]: > 100 µM
- TGI [13]: > 100 µM
- TGI [14]: > 100 µM
- TGI [15]: > 100 µM
- TGI [16]: > 100 µM
- TGI [17]: > 100 µM
- TGI [18]: > 100 µM
- TGI [19]: > 100 µM
- TGI [20]: 31 µM
- TGI [21]: > 100 µM
- TGI [23]: > 100 µM
- TGI [24]: > 100 µM
- TGI [25]: > 100 µM
- TGI [26]: > 100 µM
- TGI [27]: > 100 µM
- TGI [28]: > 100 µM
- TGI [58]: > 100 µM
- TGI [29]: > 100 µM
- TGI [30]: > 100 µM
- TGI [31]: > 100 µM
- TGI [32]: > 100 µM
- TGI [33]: > 100 µM
- TGI [34]: > 100 µM
- TGI [35]: > 100 µM
- TGI [36]: > 100 µM
- TGI [37]: > 100 µM
- TGI [38]: > 100 µM
- TGI [39]: > 100 µM
- TGI [40]: > 100 µM
- TGI [41]: > 100 µM
- TGI [42]: > 100 µM
- TGI [43]: > 100 µM
- TGI [45]: > 100 µM
- TGI [46]: > 100 µM
- TGI [48]: > 100 µM
- TGI [49]: > 100 µM
- TGI [50]: > 100 µM
- TGI [51]: > 100 µM
- TGI [52]: > 100 µM
- TGI [53]: > 100 µM
- TGI [54]: > 100 µM
- TGI [55]: > 100 µM
- TGI [56]: > 100 µM

Reference: PubChem BioAssay (NCI)
